Where “and” joins values, the source holds several entries; their conditions need not be identical. Equal entries are not always repeated.
Experiment: solvent given as SMILES

N#Cc1c(N2CCCCC2)cc(-c2ccc3c(c2)OCO3)c2c1-c1cccc3cccc-2c13
absorption maximum (in O): 429 nm

F[Si-](F)(c1ccccc1)(c1c2ccccc2cc2ccccc12)c1c2ccccc2cc2ccccc12
absorption maximum (in C1CCOC1): 391 nm

COc1ccc(-c2nc3ccccc3nc2/C=C/N2CCCC2)s1
absorption maximum (in CC#N): 456 nm

C=CC1CN2CCC1CC2[C@@H](OCc1ccccc1)c1ccnc2ccc(O)cc12 (stereo partly specified)
absorption maximum (in C1CCOC1): 338 nm | absorption maximum (in CC#N): 335 nm | absorption maximum (in CCCC#N): 337 nm | absorption maximum (in Cc1ccccc1): 335 nm | absorption maximum (in ClCCl): 334 nm

CC(C)(C)c1ccc(-c2c3c(c(-c4ccc(C(C)(C)C)cc4)c4cc5ccccc5cc24)Cc2c(c(-c4ccc(C(C)(C)C)cc4)c4cc5ccccc5cc4c2-c2ccc(C(C)(C)C)cc2)C3)cc1
absorption maximum (in ClCCl): 393 nm

CCn1ncc2c3c(C#N)c4c5ccccc5n(CC)c4nc3ccc21
absorption maximum (in CCOC(C)=O): 383 nm

N#Cc1ccc(-n2c(-c3ccc(-c4ccc(-n5c6ccccc6c6ccccc65)cc4)s3)nc3c4ccccc4c4ccccc4c32)c2ccccc12
absorption maximum (in ClCCl): 301 nm

CCCCCCCCCCCCOc1ccc(C2=C3C(=O)N(CC(OCC)OCC)C(c4ccc(OCCCCCCCCCCCC)c(OCCCCCCCCCCCC)c4)=C3C(=O)N2CC(OCC)OCC)cc1OCCCCCCCCCCCC
absorption maximum (in ClC(Cl)Cl): 496 nm

c1ccc([B-]2(c3ccccc3)Oc3ccc4ccccc4c3-c3c4ccccc4cc[n+]32)cc1
absorption maximum (in Cc1ccccc1): 427 nm

COc1ccc(/C=C2\OC(=O)c3ccccc32)cc1
absorption maximum (in CC#N): 336 nm

c1ccc(-c2nc(-c3ccccc3)c(-c3ccccc3)o2)cc1
absorption maximum (in Cc1ccccc1): 311 nm

F[B-]1(F)OC(/C=C/c2ccccc2)=CC(c2ccccc2)=[O+]1
absorption maximum (in ClCCl): 398 nm

COc1ccc(C2=C3C(/C=C/c4cc(OC)c(OC)c(OC)c4)=C(C=O)C(C)=[N+]3[B-](F)(F)n3c(/C=C/c4cc(OC)c(OC)c(OC)c4)c(C=O)c(C=Cc4cc(OC)c(OC)c(OC)c4)c32)cc1
absorption maximum (in ClCCl): 634 nm

COC(=O)C1=C(C(=O)OC)C2(c3ccccc3-c3c(Br)cc(Br)cc32)C2(/C=C/c3ccccc3)c3cc(OC)c(OC)cc3CCN12 (stereo unspecified)
absorption maximum (in ClCCl): 328 nm

c1ccc(N(c2ccccc2)c2ccc3ccc4c(N(c5ccccc5)c5ccccc5)ccc5ccc2c3c54)cc1
absorption maximum (in Cc1ccccc1): 426 nm | absorption maximum (in ClCCl): 423 nm

CCn1c(-c2ccc(-c3ccc4c(c3)C(c3ccccc3)(c3ccccc3)c3ccccc3-4)cc2)c(-c2ccc3ccccc3c2)c(-c2ccc3ccccc3c2)c1-c1ccc(-c2ccc3c(c2)C(c2ccccc2)(c2ccccc2)c2ccccc2-3)cc1
absorption maximum (in CCOC(C)=O): 325 nm

CCCCCCCCOc1ccc(C2=C(c3ccc(OCCCCCCCC)cc3)C(C)(C)c3ccccc32)cc1
absorption maximum (in C1CCCCC1): 281 nm

c1ccc2c(-n3cnc4ccccc43)cccc2c1
absorption maximum (in C1CCCCC1): 283 nm | absorption maximum (in C1CCOC1): 282 nm | absorption maximum (in CC#N): 286 nm | absorption maximum (in CCO): 284 nm | absorption maximum (in CCOC(C)=O): 283 nm | absorption maximum (in CCOCC): 284 nm | absorption maximum (in CO): 284 nm | absorption maximum (in Cc1ccccc1): 282 nm | absorption maximum (in ClC(Cl)Cl): 285 nm

N#Cc1c(-n2nnc3cc(Cl)ccc32)n([C@H]2C[C@H](O)[C@@H](CO)O2)c2ncnc(N)c12
absorption maximum (in CO): 276 nm

COC(=O)c1ccc(-c2ccc3c(c2)C(=O)c2cc(-c4ccc(C(=O)OC)cc4)ccc2-3)cc1
absorption maximum (in C1CCOC1): 342 nm

O=C(O)c1c2ccccc2nc2ccccc12
absorption maximum (in C1CCOC1): 360 nm | absorption maximum (in C1COCCO1): 362 nm | absorption maximum (in CC#N): 354 nm | absorption maximum (in CCCCCO): 370 nm | absorption maximum (in CCCCO): 370 nm | absorption maximum (in CCCO): 368 nm | absorption maximum (in CCO): 369 nm | absorption maximum (in CO): 356 nm | absorption maximum (in COCCOC): 360 nm | absorption maximum (in ClC(Cl)Cl): 362 nm | absorption maximum (in ClCCl): 362 nm | absorption maximum (in OCCO): 356 nm

CCCC1=Cc2nc1ccc1[nH]c(cc1CCC)c1nc(c(O)cc3[nH]c2cc3CCC)C(CCC)=C1
absorption maximum (in Cc1ccccc1): 677 nm

CCCC1(CCC)c2cc(-c3ccc(C(C)(C)C)cc3)ccc2-c2ccc(-c3ccc4c(c3)C(CCC)(CCC)c3cc(-c5ccc6c(c5)C(CCC)(CCC)c5cc(-c7ccc(C(C)(C)C)cc7)ccc5-6)ccc3-4)cc21
absorption maximum (in C1CCCCC1): 362 nm

c1cc2c3c(cccc3c1)-c1c-2ccc2c1ccc1ccccc12
absorption maximum (in CCCCCCC): 405 nm

Cc1cc2ccc(-c3cccc4cccc(-c5ccc6cc(C)c(=O)oc6c5)c34)cc2oc1=O
absorption maximum (in C1CCCCC1): 324 nm | absorption maximum (in C1COCCO1): 324 nm | absorption maximum (in CC#N): 326 nm | absorption maximum (in CCO): 328 nm | absorption maximum (in CCOC(C)=O): 325 nm | absorption maximum (in CN(C)C=O): 326 nm | absorption maximum (in CO): 328 nm | absorption maximum (in c1ccccc1): 324 nm

CCC(=O)c1ccc2cc(N(C)C)ccc2c1
absorption maximum (in C1CCCCC1): 342 nm and 343 nm | absorption maximum (in C1CCOC1): 346 nm | absorption maximum (in C1COCCO1): 348 nm | absorption maximum (in CC#N): 347 nm and 368 nm | absorption maximum (in CC(C)=O): 350 nm | absorption maximum (in CC(C)O): 367 nm | absorption maximum (in CCC(C)=O): 367 nm | absorption maximum (in CCCCCC): 338 nm | absorption maximum (in CCCCCCC): 343 nm | absorption maximum (in CCCCCCCCO): 360 nm | absorption maximum (in CCN(CC)CC): 343 nm | absorption maximum (in CCO): 362 nm and 369 nm | absorption maximum (in CCOC(C)=O): 352 nm | absorption maximum (in CN(C)C=O): 350 nm | absorption maximum (in CO): 362 nm | absorption maximum (in CS(C)=O): 359 nm and 369 nm | absorption maximum (in Cc1ccccc1): 345 nm and 349 nm | absorption maximum (in ClC(Cl)Cl): 358 nm | absorption maximum (in ClCCl): 355 nm and 358 nm | absorption maximum (in Clc1ccccc1): 254 nm and 354 nm | absorption maximum (in O): 364 nm | absorption maximum (in OCC(O)CO): 370 nm | absorption maximum (in OCCO): 375 nm | absorption maximum (in c1ccccc1): 355 nm

O=C1c2ccccc2-c2nc3c(F)c(F)c(F)c(F)c3n21
absorption maximum (in ClCCl): 337 nm

CCOC(=O)/C=C/c1ccc(N(C)C)cc1
absorption maximum (in C1CCCCC1): 353 nm | absorption maximum (in C1CCOC1): 362 nm | absorption maximum (in C1COCCO1): 359 nm | absorption maximum (in CC#N): 363 nm | absorption maximum (in CCCCCCCCO): 363 nm | absorption maximum (in CCCCCCO): 365 nm | absorption maximum (in CCCCO): 363 nm | absorption maximum (in CCCO): 364 nm | absorption maximum (in CCO): 363 nm | absorption maximum (in CCOC(C)=O): 360 nm | absorption maximum (in CO): 362 nm | absorption maximum (in Cc1ccccc1): 362 nm | absorption maximum (in O): 373 nm | absorption maximum (in c1ccccc1): 363 nm

C#CCOc1ccc(/C=C/C2=[N+]3C(=C(c4ccccc4)c4c(C)cc(C)n4[B-]3(F)F)C(C)=C2)cc1
absorption maximum (in CO): 563 nm

O=Cc1ccc2ccc3cccc4ccc1c2c34
absorption maximum (in C1CCOC1): 391 nm | absorption maximum (in CC#N): 390 nm | absorption maximum (in CCCCCC): 387 nm | absorption maximum (in CCO): 389 nm | absorption maximum (in CN(C)C=O): 390 nm | absorption maximum (in CO): 389 nm | absorption maximum (in Cc1ccccc1): 391 nm | absorption maximum (in ClCCl): 392 nm

CCCCCCCCCCCCn1cccc1/C=C/c1ccc(/C=C/c2cccn2CCCCCCCCCCCC)cc1
absorption maximum (in Cc1ccccc1): 398 nm

Cc1cc(-c2nc(-c3ccccc3)nc(-c3ccccc3)n2)ccc1N1c2ccccc2C2(c3ccccc3-c3ccccc32)c2ccccc21
absorption maximum (in Cc1ccccc1): 394.19 nm

CC(C)n1c2cc(O)c(F)cc2c(=O)c2cc(F)c(O)cc21
absorption maximum (in CCO): 379 nm

Clc1ccc(/C=C(\c2ccccc2)c2nc3ccccc3s2)cc1
absorption maximum (in C1CCCCC1): 340 nm | absorption maximum (in CO): 340 nm

CCCCCCN1C(=O)c2cccc3c(-c4ccc(-c5cc(-c6ccccc6)nn5-c5ccccc5)s4)ccc(c23)C1=O
absorption maximum (in ClCCl): 388 nm

CSc1ccc(-c2nc3sc4ccccc4c3s2)cc1
absorption maximum (in CS(C)=O): 365 nm

From the Deep4Chem optical property database
